Data as given in patent US20140171510A1, “HO[…] AND/OR CONJUGATES OF AMPHETAMINE AND OTHER […] PROCESSES FOR MAKING AND USING THE SAME” (priority 2011, published 2014).

What was measured:
[1] = Intranasal study in rats, plasma d-amphetamine by ELISA (Example 7); details: for % Tmax: relative to d-amp
[2] = Intravenous study in rats, plasma d-amphetamine by ELISA (Example 8); details: for Tmax: d-amphetamine in plasma, […] equivalent; for % Tmax: relative to d-amp
[3] = pH of the prodrug in deionized water at various concentrations; format: physicochemical
From the text: In a preferred embodiment, the homoarginine amphetamine prodrug comprises a dihydrochloride salt of homoarginine amphetamine. The pH of this prodrug in deionized water at various concentrations is as follows: […]

[4] = Oral PK of hArg-Amp-2HCl and Lys-Amp in rats (Example 9); details: for AUC0-24 h of d-amphetamine: equimolar doses (hArg-Amp-2HCl […], Lys-Amp 5.05 mg/kg)
[5] = Single-dose crossover oral PK study of hArg-Amp-2HCl and Lys-Amp in humans (Example 10); details: for AUC0-24 h of d-amphetamine: fasted, Vyvanse 30 mg (d-amphetamine equivalent dosages); for plasma concentrations of intact prodrug: 25 mg hArg-Amp-2HCl or same molar dose, lower limit of quantitation 1.00 ng/mL
[6] = Average results of oral studies in rats (Table 3); format: in vivo; details: for % Tmax: average of oral studies in rats, relative to Lys-Amp
[7] = Oral gavage PK study of hArg-Amp vs Lys-Amp in rats, plasma d-amphetamine by ELISA (Example 6); details: relative to Lys-Amp
[8] = Parenteral (intranasal, intravenous) administration in rats, release of amphetamine (Example 1); details: parental routes (intranasal, intravenous)
[9] = Oral PK of hArg-Amp-2HCl and Lys-Amp in dogs (Example 9)
[10] = oral solution, equimolar doses (4.20 and 5.05 mg/kg)
[11] = oral solution, hArg-Amp-2HCl 25 mg
[12] = oral solution, hArg-Amp-2HCl 25 mg, Vyvanse 30 mg
[13] = equimolar doses (1.5 and 1.8 mg/kg)

Compound	% Tmax [1]	Tmax [2]	% Tmax [2]	AUC0-24 h of intact prodrug [4, 10]	Cmax of d-amphetamine [4, 10]	Cmax of intact prodrug [4, 10]	AUC0-24 h of d-amphetamine ([4]; oral solution)	AUC0-24 h of d-amphetamine [5, 11]	Cmax of d-amphetamine [5, 12]	Tmax of intact prodrug [5, 12]	% Tmax [6]	% Tmax [7]	further results
C[C@H](N)Cc1ccccc1 [d-amp, d-amphetamine]	100%	5 m	100%										Tmax ([1]; d-amphetamine in plasma, […] equivalent, given in minutes): 5 m
C[C@@H](Cc1ccccc1)NC(=O)[C@@H](N)CCCCN=C(N)N.Cl.Cl [hArg-Amp-2HCl, l-homoarginine-d-amphetamine dihydrochloride]				1.8 ng·h/mL	43.2 ng/mL	3.1 ng/mL	447.2 ng·h/mL	282.7 ng·h/mL	20.7 ng/mL	0 min			pH ([3]; 0.1 mg/mL (0.3 mM) in deionized water): 6.15 ± 0.1; pH ([3]; 1.0 mg/mL ([…]) in deionized water): 5.40 ± 0.1; pH ([3]; 10 mg/mL (26.4 mM) in deionized water): 4.35 ± 0.1; pH ([3]; 100 mg/mL (264.3 mM) in deionized water): 3.30 ± 0.1; Tmax of d-amphetamine, hArg-Amp-2HCl/Lys-Amp ([4]; oral): 150.0%; Tmax of intact prodrug, hArg-Amp-2HCl/Lys-Amp ([4]; oral): 100.0%^; Tmax of intact prodrug [4, 10]: 15 min; Tmax of d-amphetamine, hArg-Amp-2HCl/Lys-Amp ([5]; oral): 110.5%; Tmax of intact prodrug, hArg-Amp-2HCl/Lys-Amp ([5]; oral): 0%
l-homoarginine-d-amphetamine [hArg-Amp]	600%	5 m	100%								200-400%	133%	Tmax ([6]; average of oral studies in rats (n = 30 per compound)): 120 to 240 min; Tmax of d-amphetamine [5, 12]: approximately three hours; plasma concentrations of intact prodrug ([5]; oral, listed as homoarginine amphetamine prodrug): ≤ 1.00 ng/mL; plasma concentrations of intact prodrug ([5]; oral, listed as homoarginine-amphetamine prodrug): below the detectable limit; period over which amphetamine is eliminated after the maximum plasma concentration ([5]; single oral dose of 25 mg): about 45 hours; release of amphetamine [8]: < 25%
l-lysine-d-amphetamine [Lys-Amp, reference compound]	3600%		100%	74.9 ng·h/mL	71.5 ng/mL	90.2 ng/mL	596.4 ng·h/mL	421.9 ng·h/mL	30.0 ng/mL	36.6 min	100%	100%	AUC0-24 h of intact prodrug [9, 13]: 285.8 ng·h/mL; Cmax of d-amphetamine [9, 13]: 95.4 ng/mL; Cmax of intact prodrug [9, 13]: 305.5 ng/mL; AUC0-24 h of d-amphetamine ([9]; equimolar doses (hArg-Amp-2HCl […], Lys-Amp 1.8 mg/kg)): 775.0 ng·h/mL; AUC0-24 h of intact prodrug [5, 12]: 19.4 ng·h/mL; Cmax of intact prodrug [5, 12]: 18.1 ng/mL
